Converted amounts (≈) assume the structure as drawn. Blank lines part the entries; values can stand above or below the molecule they belong to.
Columns and labels:
Plasmodium berghei = test: Antimalarial activity against Plasmodium berghei ANKA infected in Swiss albino mouse assessed as parasitemia suppression at 50 micromol/kg, po administered for 4 days and measured at 24 hrs post-last dose by Giemsa staining based microscopic method relative to control; type: functional; details: dose 50 µmol/kg; time 4 day
Plasmodium falciparum [1] = test: Antimalarial activity against chloroquine resistant Plasmodium falciparum RKL9 assessed as reduction in schizont maturation incubated for 24 hrs by Giemsa staining based assay; type: functional, organism-based; details: RKL9, 24 h
Plasmodium falciparum [2] = test: Antiplasmodial activity against chloroquine sensitive Plasmodium falciparum D10; type: functional, organism-based
Plasmodium falciparum [3] = test: Antimalarial activity against chloroquine resistant Plasmodium falciparum incubated for 24 to 48 hrs by Giemsa staining based assay; type: functional, organism-based
Plasmodium falciparum [4] = test: Antimalarial activity against chloroquine sensitive Plasmodium falciparum incubated for 24 to 48 hrs by Giemsa staining based assay; type: functional, organism-based
Plasmodium falciparum [5] = test: Antiplasmodial activity against chloroquine sensitive Plasmodium falciparum FCR-3 infected in human erythrocytes incubated for 72 hrs by giemsa staining based assay; type: functional, organism-based; details: FCR-3, 72 h
[6] = Selectivity index, ratio of EC50 for cytotoxicity against […] cells to EC50 for antiplasmodial activity against Plasmodium falciparum FCR-3 ATCC 30932 infected in human erythrocytes; type: toxicity, cell-based; details: mouse, read-out: Ratio EC50
Plasmodium falciparum [7] = test: Antimalarial activity against Plasmodium falciparum assessed as reduction in [3H]-hypoxanthine incorporation into DNA incubated for 36 hrs by beta counter method; type: functional, organism-based
Plasmodium falciparum [8] = test: Antiplasmodial activity against chloroquine-resistant/mefloquine resistant early ring stage Plasmodium falciparum Dd2 by whole-cell SYBR Green I based assay; type: functional, organism-based
Plasmodium falciparum [9] = test: Antiplasmodial activity against chloroquine-sensitive/mefloquine resistant early ring stage Plasmodium falciparum 3D7 by whole-cell SYBR Green I based assay; type: functional, organism-based
Plasmodium falciparum [10] = test: Antiplasmodial activity against Plasmodium falciparum IPC5202 by whole-cell SYBR Green I based assay; type: functional, organism-based
Plasmodium falciparum [11] = test: Antiplasmodial activity against Plasmodium falciparum IPC4912 by whole-cell SYBR Green I based assay; type: functional, organism-based
Plasmodium = test: Antimalarial activity against Plasmodium; type: functional
Plasmodium falciparum [12] = test: Antimalarial activity against chloroquine sensitive Plasmodium falciparum 3D7 incubated for 72 hrs by JSB1/JSB2 staining based assay; type: functional, organism-based; details: 3D7, 72 h
[13] = test system: Falcipain-2 (Plasmodium falciparum); test: Inhibition of Plasmodium falciparum falcipain-2 in enzyme assay
[14] = target: T1, Enoyl-acyl-carrier protein reductase (Plasmodium falciparum, UniProt Q965D5); test: Inhibition of Plasmodium falciparum enoyl-ACP reductase using crotonoyl-CoA as substrate by UV-Vis spectrophotometric method
T1 sequence (Q965D5 whole entry): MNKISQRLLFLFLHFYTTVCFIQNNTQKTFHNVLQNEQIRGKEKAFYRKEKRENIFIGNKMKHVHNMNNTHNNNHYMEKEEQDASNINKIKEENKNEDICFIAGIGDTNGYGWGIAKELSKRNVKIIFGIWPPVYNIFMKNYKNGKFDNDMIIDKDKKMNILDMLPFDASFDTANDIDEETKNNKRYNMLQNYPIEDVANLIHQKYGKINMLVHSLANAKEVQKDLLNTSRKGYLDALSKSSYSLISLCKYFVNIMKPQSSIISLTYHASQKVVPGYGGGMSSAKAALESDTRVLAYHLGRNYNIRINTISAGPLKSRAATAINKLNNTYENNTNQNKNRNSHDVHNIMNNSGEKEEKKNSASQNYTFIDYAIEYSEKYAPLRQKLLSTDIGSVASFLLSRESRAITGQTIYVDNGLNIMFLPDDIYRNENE

Plasmodium falciparum [15] = test: Antimalarial activity against chloroquine resistant Plasmodium falciparum; type: functional, organism-based
Plasmodium falciparum [16] = test: Antimalarial activity against chloroquine sensitive Plasmodium falciparum; type: functional, organism-based
Plasmodium falciparum [17] = test: Antimalarial activity against chloroquine-resistant ring-stage Plasmodium falciparum W2 infected in human erythrocytes by HRP2 assay; type: functional, organism-based
Plasmodium falciparum [18] = test: Antimalarial activity against chloroquine sensitive Plasmodium falciparum 3D7 assessed as reduction in schizont maturation incubated for 24 hrs by Giemsa staining based assay; type: functional, organism-based; details: 3D7, 24 h

Compound: Cc1ccc(-n2cc(C=O)c(-c3ccccc3)n2)cc1
Activity (Plasmodium berghei): 83%
IC50 (Plasmodium falciparum [1]): 33 nM

Compound: CC(C)(C)n1c(CC(N)C(=O)O)cnc1Cc1ccccc1 (stereo not drawn)
IC50 (Plasmodium falciparum [3]): 10000 nM
IC50 (Plasmodium falciparum [4]): 10000 nM

Compound: CCn1c(=O)/c(=C2\Sc3ccccc3N2C)s/c1=C\c1cc[n+](C)c2ccccc12
EC50 (Plasmodium falciparum [5]): 4 nM
selectivity ratio [6]: > 100

Compound: Cc1ccc(-n2cc(/C=N/Nc3ccncc3)c(-c3ccccc3)n2)cc1
IC50 (Plasmodium falciparum [1]): 33 nM

Compound: CC(C)c1nc(CC(N)C(=O)O)c[nH]1 (stereo not drawn)
IC50 (Plasmodium falciparum [3]): 10000 nM
IC50 (Plasmodium falciparum [4]): 10000 nM

Compound: Cc1ccc(-n2cc(C(=O)O)c(-c3ccccc3)n2)cc1
Activity (Plasmodium berghei): 83%
IC50 (Plasmodium falciparum [1]): 33 nM

Compound: O=C(O)c1cn(-c2ccc(Cl)cc2)nc1-c1ccccc1
Activity (Plasmodium berghei): 83%
IC50 (Plasmodium falciparum [1]): 33 nM

Compound: COc1ccc(Nc2n[nH]c(N)c2C#N)cc1
IC50 (Plasmodium falciparum [7]): 140 nM

Compound: c1ccc(-n2nnnc2OCC2CCC3(CC2)OOC2(O3)C3CC4CC(C3)CC2C4)cc1 (stereo not drawn)
IC50 (Plasmodium falciparum [8]): 0.3 nM
IC50 (Plasmodium falciparum [9]): 0.3 nM
IC50 (Plasmodium falciparum [10]): 0.3 nM
IC50 (Plasmodium falciparum [11]): 0.3 nM

Compound: NCCc1cncn1Cc1ccccc1
IC50 (Plasmodium falciparum [3]): 10000 nM
IC50 (Plasmodium falciparum [4]): 10000 nM

Compound: CCn1c(=O)/c(=C2\Sc3ccccc3N2C)s/c1=C\c1cccc[n+]1CCO
EC50 (Plasmodium falciparum [5]): 4 nM
selectivity ratio [6]: > 100

Compound: CC(C)n1cncc1CC(N)C(=O)O (stereo not drawn)
IC50 (Plasmodium falciparum [3]): 10000 nM
IC50 (Plasmodium falciparum [4]): 10000 nM

Compound: NC(=S)N1N=C(c2ccc(N)cc2)CC1c1cn(-c2ccccc2)nc1-c1ccccc1 (stereo not drawn)
IC50 (Plasmodium falciparum [12]): < 5000 nM

Compound: CN1/C(=c2\s/c(=C\c3cc[n+](C)cc3)n(Cc3ccccc3)c2=O)Sc2ccccc21
EC50 (Plasmodium falciparum [5]): 4 nM
selectivity ratio [6]: > 100

Compound: Cn1nnnc1NCC1CCC2(CC1)OOC1(OO2)C2CC3CC(C2)CC1C3 (stereo not drawn)
IC50 (Plasmodium falciparum [8]): 0.3 nM
IC50 (Plasmodium falciparum [9]): 0.3 nM
IC50 (Plasmodium falciparum [10]): 0.3 nM
IC50 (Plasmodium falciparum [11]): 0.3 nM

Compound: CCn1c(=O)/c(=C2\Sc3ccccc3N2C)s/c1=C\c1cccc[n+]1CCCCC(=O)O
EC50 (Plasmodium falciparum [5]): 4 nM
selectivity ratio [6]: > 100

Compound: O=[N+]([O-])c1ccc(-c2cc(C(F)(F)F)nn2-c2ccccc2)cc1
IC50 [14]: 50000 nM

Compound: COc1ccc(C2=NN(C(N)=S)C(c3cn(-c4ccc(OC)cc4)nc3-c3ccccc3)C2)cc1 (stereo not drawn)
IC50 (Plasmodium falciparum [12]): < 5000 nM

Compound: CC(=O)N1CCN(c2ccc(OCC3COC(Cn4ccnc4)(c4ccc(Cl)cc4Cl)O3)cc2)CC1 (stereo not drawn) [KETOCONAZOLE]
IC50 (Plasmodium falciparum [15]): 200 nM
IC50 (Plasmodium falciparum [16]): 200 nM

Compound: Cc1ccc(-n2cc(C3CC(c4ccc(N)cc4)=NN3C(N)=S)c(-c3ccccc3)n2)cc1 (stereo not drawn)
IC50 (Plasmodium falciparum [12]): < 5000 nM

Compound: CCn1c(=O)/c(=C2\Sc3ccccc3N2C)s/c1=C/c1cc[n+](C)c(-c2ccccc2)c1
EC50 (Plasmodium falciparum [5]): 4 nM
selectivity ratio [6]: > 100

Compound: Clc1ccc2c(-n3cc(C4CC4)nn3)ccnc2c1
IC50 (Plasmodium falciparum [17]): 1400 nM

Compound: Clc1ccc2c(-n3cc(OC4CCCCO4)nn3)ccnc2c1 (stereo not drawn)
IC50 (Plasmodium falciparum [17]): 1400 nM

Compound: C[C@@H]1CC[C@H]2[C@@H](C)C(=O)O[C@@H]3O[C@@]4(C)CC[C@@H]1[C@]32OO4 [ARTEMISININ]
IC50 (Plasmodium falciparum [18]): 6 nM

Second part, led by results:

IC50 (Plasmodium falciparum [2]): ≤ 25000 nM
Compound: CCNCC(Cn1cc(-c2ccccc2)nn1)NCc1ccc(Cl)cc1 (stereo not drawn)

EC50 (Plasmodium falciparum [5]): 4 nM
Compound: CCn1c(=O)/c(=C2\Sc3ccccc3N2C)s/c1=C\c1ccc2ccccc2[n+]1C
selectivity ratio [6]: > 100

IC50 (Plasmodium): 3 ng/mL (≈ 8.02 nM)
Compound: COc1ccccc1NC(=S)N/N=C(\C)c1nc2cc(Cl)ccc2[nH]1

IC50 (Plasmodium falciparum [12]): < 5000 nM
Compound: NC(=S)N1N=C(c2ccc(N)cc2)CC1c1cn(-c2ccc(Cl)cc2)nc1-c1ccccc1 (stereo not drawn)

IC50 (Plasmodium): 3 ng/mL (≈ 7.93 nM)
Compound: C/C(=N\NC(=S)Nc1ccc(Cl)cc1)c1nc2cc(Cl)ccc2[nH]1

EC50 (Plasmodium falciparum [5]): 4 nM
Compound: CCn1c(=O)/c(=C2\Sc3ccccc3N2C)s/c1=C\c1cc[n+](C)cc1
selectivity ratio [6]: > 100

IC50 (Plasmodium): 3 ng/mL (≈ 8.38 nM)
Compound: C/C(=N\NC(=S)Nc1ccc(C)cc1)c1nc2cc(Cl)ccc2[nH]1

IC50 [13]: 690 nM
Compound: COc1cc(/C=C(/C#N)c2nc3ccccc3[nH]2)cc(OC)c1

IC50 (Plasmodium): 3 ng/mL (≈ 9.68 nM)
Compound: C/C(=N\NC(=S)NC(C)C)c1nc2cc(Cl)ccc2[nH]1

IC50 (Plasmodium): 3 ng/mL (≈ 8.02 nM)
Compound: COc1ccc(NC(=S)N/N=C(\C)c2nc3cc(Cl)ccc3[nH]2)cc1

EC50 (Plasmodium falciparum [5]): 4 nM
Compound: CCn1c(=O)/c(=C2\Sc3ccccc3N2C)s/c1=C/c1cc[n+](CCO)cc1
selectivity ratio [6]: > 100

IC50 (Plasmodium): 3 ng/mL (≈ 8.38 nM)
Compound: C/C(=N\NC(=S)NCc1ccccc1)c1nc2cc(Cl)ccc2[nH]1

Reference: ChEMBL document CHEMBL4673175, “An epigrammatic status of the azole-based antimalarial drugs” (RSC Med Chem, 2020)
